Laboratory results as given in PubChem BioAssay (NCI).
Several values for one entry are separate records, joined by “and”; a condition that tells them apart may be missing. Equal entries are not always repeated.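 Cultured in 96-well plates, cells were exposed to test compound for 48 hours across five concentrations. At the GI50, growth is halved. At the TGI there is no net growth.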

What was measured:
Test in all cases: DTP human tumour cell line panel, 48 h
A549 NSCLC = test system: A549 NSCLC
HCC-2998 colon = test system: HCC-2998 colon
UO-31 renal = test system: UO-31 renal
KM12 colon = test system: KM12 colon
CCRF-CEM leukemia = test system: CCRF-CEM leukemia
CAKI-1 renal = test system: CAKI-1 renal
MDA-MB-231 breast = test system: MDA-MB-231 breast
BT-549 breast = test system: BT-549 breast
NCI/ADR-RES ovarian = test system: NCI/ADR-RES ovarian
MCF7 breast = test system: MCF7 breast

SMILES | TGI (A549 NSCLC) | TGI (HCC-2998 colon) [µM] | TGI (UO-31 renal) | TGI (KM12 colon) | TGI (CCRF-CEM leukemia) | TGI (CAKI-1 renal) | GI50 (MDA-MB-231 breast) [µM] | TGI (MDA-MB-231 breast) | GI50 (A549 NSCLC) [µM] | GI50 (HCC-2998 colon) | GI50 (BT-549 breast) [µM] | TGI (BT-549 breast) | GI50 (NCI/ADR-RES ovarian) | TGI (NCI/ADR-RES ovarian) | GI50 (UO-31 renal) | GI50 (KM12 colon) | GI50 (CCRF-CEM leukemia) | GI50 (MCF7 breast) [µM] | TGI (MCF7 breast) [µM] | GI50 (CAKI-1 renal) [µM]
Cc1cc2c(cc1C)[n+](=O)c(C(=O)CC(=O)C(=O)Nc1c(C(C)C)cccc1C(C)C)c(C)n2[O-] | > 100 µM | > 100 | > 100 µM | > 100 µM | > 100 µM | > 100 µM |  |  |  |  |  |  |  |  |  |  |  |  |  | 
COc1ccc(CNc2cc(OC)c(OC)c(OC)c2)cc1 | > 100 µM | 32.3 | > 94.6 µM | > 41.7 µM | > 100 µM | > 100 µM |  |  |  |  |  |  |  |  |  |  |  |  |  | 
CC1=C(CCCNS(C)(=O)=O)C2=C(C)C3(CC3)[C@@](C)(O)C(=O)C2=C1 | 24.8 µM | 4.51 | 2.3 µM | > 100 µM | > 100 µM |  | 1.63 | 6.5 µM | 1.64 | 1.52 µM | 0.749 | 3.89 µM | 1.38 µM | 18.1 µM | 0.5 µM | 3.99 µM | 44.1 µM | 2.01 | > 100 | 
CC1(C)CC(/C=C2/OC(=O)c3ccccc32)=C(C#N)C(=O)O1 | > 100 µM | > 100 | > 100 µM | > 100 µM | > 100 µM | > 100 µM |  |  |  |  |  |  |  |  |  |  |  |  |  | 
COc1cccc(-c2cc(=O)c3cc(N(C)C)ccc3[nH]2)c1 | > 100 µM |  | > 100 µM and 78.1 µM | 1.06 µM and 0.119 µM and 0.766 µM |  |  | 0.0107 |  |  | 0.0472 µM and 0.0229 µM |  |  | 0.0144 µM and 0.00533 µM | 0.0318 µM and 0.021 µM and 0.0222 µM | 0.0642 µM and 0.0126 µM and 0.0132 µM | 0.0334 µM and 0.0159 µM | 0.0135 µM and 0.00524 µM |  |  | 
CCCCN(CCCC)C(=O)C(=O)C(C#N)c1ccc(C)cc1 (stereo not drawn) | > 100 µM | > 100 | > 100 µM | > 100 µM | > 100 µM | > 100 µM |  |  |  |  |  |  |  |  |  |  |  |  |  | 
Cc1nc2c(nc1Cl)nc(Oc1ccc(Cl)cc1)c1ccccc12 | > 100 µM | > 100 | 73.7 µM | > 100 µM | > 100 µM | > 100 µM |  |  |  |  |  |  |  |  |  |  |  |  |  | 
OCc1ccc2[n+](c1)CCC1c3ccccc3NC21 (stereo not drawn) | > 300 µM | > 300 |  | > 300 µM | > 300 µM | > 300 µM |  |  |  |  |  |  |  |  |  |  |  |  |  | 
CCOC(=O)/C=C(/C(=O)OCC)n1cc(Cl)c(=O)n(CC(=O)OCC)c1=O | 18.1 µM and 67 µM |  |  | > 25 µM and 43.8 µM | 1.13 µM and 5.65 µM | 7.64 µM and 5.5 µM | 20.6 | 10.7 µM and 36.8 µM | 23.4 |  |  | 10.6 µM and 37.8 µM |  | 25 µM and 97.7 µM |  | 21.2 µM | 2.12 µM |  | 46.3 | 
COc1ccc2c(c1)c(-c1nc(-c3cn(C)c4ncccc34)cs1)cn2CCCN1CCCCC1 | 3.46 µM | 3.06 | 2.87 µM | 3.45 µM | 4.04 µM |  | 1.78 | 3.37 µM | 1.87 | 1.56 µM | 4.91 | 19.5 µM | 1.76 µM | 3.46 µM | 1.51 µM | 1.78 µM | 2.05 µM | 1.7 | 3.32 | 
COC(=O)C(/C(=N/NC(N)=O)C(=O)Nc1ccc(C)cc1)c1nc2ccc([N+](=O)[O-])cc2[nH]c1=O (stereo not drawn) | > 100 µM | > 100 |  | > 100 µM |  | > 100 µM |  | > 100 µM |  |  |  | > 100 µM |  | > 100 µM |  |  |  |  | > 100 | 
O=C(CI)NC1Oc2ccccc2-c2oc(=O)c(-c3ccccc3)cc21 (stereo not drawn) | 6.16 µM | 26.6 | 3.28 µM | 3.46 µM | > 100 µM | 3.05 µM |  |  | 2.36 | 8.46 µM | 1.7 | 3.24 µM |  |  | 1.86 µM | 1.77 µM | 0.305 µM |  |  | 1.67
CCCCCCCCCCCCCC(=O)OC1CC(=O)OC1CO (stereo not drawn) | > 100 µM | > 100 | 92.6 µM | 56.7 µM | 74.4 µM | > 100 µM |  |  |  |  |  |  |  |  |  |  |  |  |  | 
COc1ccc2ccc3c(c2c1)CN1CCc2cc(OC)c(OC)cc2C1C3 (stereo not drawn) |  | > 100 | > 100 µM | > 100 µM | > 100 µM | > 100 µM |  |  |  |  |  |  |  |  |  |  |  |  |  | 
Clc1ccc(C2N3CCCCC3[C@@H]3c4[nH]c5ccccc5c4CCN23)cc1 (stereo partly drawn) | > 100 µM | > 100 | > 100 µM |  | > 100 µM | > 100 µM |  |  |  |  |  |  |  |  |  |  |  |  |  | 
N#CSCC1CC(O)(c2ccccc2)C(c2ccccc2)C(c2ccc(Cl)cc2)O1 (stereo not drawn) | 4.24 µM | 3.35 | 2.68 µM |  |  | 4.14 µM | 1.8 | 4.79 µM | 1.78 | 1.84 µM |  |  | 1.67 µM | 3.43 µM | 1.33 µM |  |  | 1.27 | 3.21 | 1.67
Cn1c(N2NC(=O)C(N=Nc3ccc(S(N)(=O)=O)cc3)C2=O)nc(-c2ccco2)c(C#N)c1=O (stereo not drawn) | > 50 µM |  | > 50 µM | > 50 µM | > 50 µM | > 50 µM | 28.6 | > 50 µM | > 50 |  | 8.67 | 40.6 µM | > 50 µM | > 50 µM | > 50 µM | > 50 µM | 8.63 µM | 14.7 | > 50 | 11.9
Cc1ccc(CS/C(=C\c2ccc([N+](=O)[O-])cc2)C(=O)c2ccc(F)cc2)cc1 | > 100 µM | 8.42 | 13.3 µM | 5.13 µM | > 100 µM |  | 2.42 | 6.08 µM | 49.1 | 2.73 µM | 1.92 | 4.38 µM | 3.28 µM | > 100 µM | 2.72 µM | 2.16 µM | 2.23 µM |  |  | 
O=C1c2cccc(NCCN=Cc3cc(O)ccc3O)c2C(=O)c2c(NCCN=Cc3cc(O)ccc3O)cccc21 | 4.24 µM | 2.93 | 6.13 µM |  | 1.63 µM |  | 0.877 | 2.25 µM | 1.51 | 1.39 µM | 1.89 | 7.77 µM | 13.4 µM | 35.9 µM | 1.71 µM |  | 0.351 µM |  |  | 
